Consider eight molecules from patent publication US20130203602A1, “SUPPORTED BIOLOGICALLY ACTIVE COMPOUNDS” (Danmarks Tekniske Universitet, priority 2010, published 2013).

Marks after values point to notes of the source that are not given here.

This series is described as follows: Thermal stability determination by thermogravimetric analysis (TGA). The class given is physicochemical. Particulars: for temperature at which it starts to decompose: heated neat; for Inflection point / T5% onset temperature: not supported/neat; for Inflection point: TGA 25-800° C., 5° C./min, under air; for T5% onset temperature: TGA 5° C./min, under nitrogen.

Regarding `Nc1nc2c(ncn2COCCO)c(=O)[nH]1` [Acyclovir, reference compound], the “temperature at which it starts to decompose” value is “around 249 °C” and the Inflection point was 249 °C.
Turning to `CC(C)Cc1ccc(C(C)C(=O)O)cc1` (stereo not shown) [Ibuprofene, reference compound], the “temperature at which it starts to decompose” value was “around 150 °C” and the T5% onset temperature is 155* ° C.
Turning to `CC(C)Cc1ccc(C(C)C(=O)O)cc1` (stereo not shown) [Tetrabutylphosphonium Ibuprofenate [7]], the T5% onset temperature is 236* ° C.
`O=C(O)CNCP(=O)(O)O` [Tetraethylammonium Glyphosate [6], Tetraethylammonium Glyphosate] gave an Inflection point of 150 °C.
Same read-out and setting: under `Nc1nc2c(ncn2COCCO)c(=O)[nH]1` [Trimethylhexadecylammonium acyclovir [3]] [Trimethylhexadecylammonium Aciclovir] stands 189 °C.
For the setting “neat compound, given with the synthesis example”, `CC(C)Cc1ccc(C(C)C(=O)O)cc1.CCN(CC)CC(=O)Nc1c(C)cccc1C` [[8], Lidocainium Ibuprofenate] yielded a T5%onset of 177 °C.
“Itraconazolium Dioctylsulfosuccinate [Itraconazolium Dioctylsulfosuccinate [5]]” came in with an Inflection point of 257 °C.
For “Tributylmethylammonium Acyclovir [Tributylmethylammonium Acyclovir [2]]”, the Inflection point came to 203 °C.
